Results published in patent US10167262B2, “Herbicidal substituted 3-arylpyrazoles” (FMC CORPORATION, priority 2014, dated 2019).

Legend:
Format in all cases: in vivo
[1] = tested on: barnyardgrass (Echinochloa crus-galli); experiment: Test A pre-/postemergence greenhouse herbicide test, visual injury rating 0-100
How it was run: (§1)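 Test chemicals in a non-phytotoxic solvent/surfactant blend were sprayed onto loam–sand soil after planting (pre) and onto 2–10 cm seedlings at one to two leaves (post). Greenhouse hold approx. 10 days; injury then judged visually.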

corn (Zea mays) = experiment: as above
How it was run: as §1

[2] = tested on: giant foxtail (Setaria faberii); experiment: as above
How it was run: as §1

[3] = tested on: large (Lg) crabgrass (Digitaria sanguinalis); experiment: as above
How it was run: as §1

[4] = tested on: morningglory (Ipomoea spp.); experiment: as above
How it was run: as §1

[5] = tested on: pigweed (Amaranthus retroflexus); experiment: as above
How it was run: as §1

[6] = tested on: velvetleaf (Abutilon theophrasti); experiment: as above
How it was run: as §1

[7] = tested on: wheat (Triticum aestivum); experiment: as above
How it was run: as §1

[8] = tested on: galium (catchweed bedstraw, Galium aparine); experiment: Test C pre-/postemergence greenhouse test, plant response rating 0-100
How it was run: (§2)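 Greenhouse test. Preemergence: seed in loam:sand, sprayed with formulated chemical (solvent + surfactant). Postemergence: 1–4 leaf plants, 2–18 cm, peat-based potting medium. Hold 13–15 d; score visually, 0 (none) to 100 (complete control); dash = not tested.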

[9] = tested on: morningglory (Ipomoea coccinea); experiment: as above
How it was run: as §2

[10] = tested on: oilseed rape (Brassica napus); experiment: as above
How it was run: as §2

[11] = tested on: chickweed (common chickweed, Stellaria media); experiment: Test C postemergence greenhouse test, plant response rating 0-100; conditions: for Plant response rating, Chickweed: scale 0 to 100
How it was run: (§3)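 Visual rating vs. controls, 0 (no effect) to 100 (complete control), 13–15 d after postemergence treatment. Potted plants, 1- to 4-leaf stage (2–18 cm), greenhouse-held.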

kochia (Kochia scoparia) = experiment: as above; conditions: for Plant response rating, Kochia: scale 0 to 100
How it was run: as §3

wild oat (Avena fatua) = experiment: as above; conditions: for Plant response rating, Oat, Wild: scale 0 to 100
How it was run: as §3

[12] = Postemergence, 250 g ai/ha, scale 0 to 100
[13] = Postemergence, 500 g ai/ha, scale 0 to 100

Q: Which results are given for `O=C(c1ccccc1)c1cn(S(=O)(=O)CC(F)(F)F)nc1-c1cc(Cl)cc(Cl)c1` [Compound 3]?
A: Plant response rating (0 to 100 scale), Barnyardgrass ([1]; Postemergence, 125 g ai/ha): 0; Plant response rating (0 to 100 scale), Barnyardgrass ([1]; Postemergence, 500 g ai/ha): 0; Barnyardgrass plant response rating (0 = no effect, 100 = complete control) ([1]; Preemergence, 125 g ai/ha): 0; Plant response rating (0 to 100 scale), Barnyardgrass ([1]; Preemergence, 500 g ai/ha): 0; Plant response rating (0 to 100 scale), Corn (corn (Zea mays); Postemergence, 125 g ai/ha): 0; Plant response rating (0 to 100 scale), Corn (corn (Zea mays); Postemergence, 500 g ai/ha): 0; Corn plant response rating (0 = no effect, 100 = complete control) (corn (Zea mays); Preemergence, 125 g ai/ha): 0; Plant response rating (0 to 100 scale), Corn (corn (Zea mays); Preemergence, 500 g ai/ha): 0; Plant response rating (0 to 100 scale), Foxtail, Giant ([2]; Postemergence, 125 g ai/ha): 0; Plant response rating (0 to 100 scale), Foxtail, Giant ([2]; Postemergence, 500 g ai/ha): 0; Foxtail, Giant plant response rating (0 = no effect, 100 = complete control) ([2]; Preemergence, 125 g ai/ha): 0; Plant response rating (0 to 100 scale), Foxtail, Giant ([2]; Preemergence, 500 g ai/ha): 0; Plant response rating (0 to 100 scale), Crabgrass, Large ([3]; Postemergence, 125 g ai/ha): 0; Plant response rating (0 to 100 scale), Crabgrass, Large ([3]; Postemergence, 500 g ai/ha): 0; Crabgrass, Large plant response rating (0 = no effect, 100 = complete control) ([3]; Preemergence, 125 g ai/ha): 0; Plant response rating (0 to 100 scale), Crabgrass, Large ([3]; Preemergence, 500 g ai/ha): 0; Plant response rating (0 to 100 scale), Morningglory ([4]; Postemergence, 125 g ai/ha): 0; Plant response rating (0 to 100 scale), Morningglory ([4]; Postemergence, 500 g ai/ha): 0; Morningglory plant response rating (0 = no effect, 100 = complete control) ([4]; Preemergence, 125 g ai/ha): 0; Plant response rating (0 to 100 scale), Morningglory ([4]; Preemergence, 500 g ai/ha): 0; Plant response rating (0 to 100 scale), Pigweed ([5]; Postemergence, 125 g ai/ha): 80; Plant response rating (0 to 100 scale), Pigweed ([5]; Postemergence, 500 g ai/ha): 100; Pigweed plant response rating (0 = no effect, 100 = complete control) ([5]; Preemergence, 125 g ai/ha): 60; Plant response rating (0 to 100 scale), Pigweed ([5]; Preemergence, 500 g ai/ha): 80; Plant response rating (0 to 100 scale), Velvetleaf ([6]; Postemergence, 125 g ai/ha): 90; Plant response rating (0 to 100 scale), Velvetleaf ([6]; Postemergence, 500 g ai/ha): 100; Velvetleaf plant response rating (0 = no effect, 100 = complete control) ([6]; Preemergence, 125 g ai/ha): 0; Plant response rating (0 to 100 scale), Velvetleaf ([6]; Preemergence, 500 g ai/ha): 50; Plant response rating (0 to 100 scale), Wheat ([7]; Postemergence, 125 g ai/ha): 0; Plant response rating (0 to 100 scale), Wheat ([7]; Postemergence, 500 g ai/ha): 0; Wheat plant response rating (0 = no effect, 100 = complete control) ([7]; Preemergence, 125 g ai/ha): 0; Plant response rating (0 to 100 scale), Wheat ([7]; Preemergence, 500 g ai/ha): 0; Plant response rating (0 to 100), Galium ([8]; Postemergence, 62 g ai/ha): 0; Plant response rating (0 to 100), Galium ([8]; Postemergence, 125 g ai/ha): 0; Plant response rating, Galium [8, 12]: 20; Plant response rating, Galium [8, 13]: 30; Plant response rating, Galium ([8]; Preemergence, 62 g ai/ha): 0; Plant response rating, Galium ([8]; Preemergence, 125 g ai/ha): 0; Plant response rating, Galium ([8]; Preemergence, 250 g ai/ha): 0; Plant response rating, Galium ([8]; Preemergence, 500 g ai/ha): 0; Plant response rating (0 to 100), Morningglory ([9]; Postemergence, 62 g ai/ha): 0; Plant response rating (0 to 100), Morningglory ([9]; Postemergence, 125 g ai/ha): 0; Plant response rating, Morningglory [9, 12]: 0; Plant response rating, Morningglory [9, 13]: 0; Plant response rating, Morningglory ([9]; Preemergence, 62 g ai/ha): 0; Plant response rating, Morningglory ([9]; Preemergence, 125 g ai/ha): 0; Plant response rating, Morningglory ([9]; Preemergence, 250 g ai/ha): 10; Plant response rating, Morningglory ([9]; Preemergence, 500 g ai/ha): 10; Plant response rating (0 to 100), Oilseed Rape ([10]; Postemergence, 62 g ai/ha): 60; Plant response rating (0 to 100), Oilseed Rape ([10]; Postemergence, 125 g ai/ha): 70; Plant response rating, Oilseed Rape [10, 12]: 80; Plant response rating, Oilseed Rape [10, 13]: 85; Plant response rating, Oilseed Rape ([10]; Preemergence, 62 g ai/ha): 40; Plant response rating, Oilseed Rape ([10]; Preemergence, 125 g ai/ha): 80; Plant response rating, Oilseed Rape ([10]; Preemergence, 250 g ai/ha): 80; Plant response rating, Oilseed Rape ([10]; Preemergence, 500 g ai/ha): 100; Plant response rating (0 to 100), Chickweed ([11]; 62 g ai/ha): 100; Plant response rating (0 to 100), Chickweed ([11]; 125 g ai/ha): 100; Plant response rating, Chickweed ([11]; 250 g ai/ha): 100; Plant response rating, Chickweed ([11]; 500 g ai/ha): 100; Plant response rating (0 to 100), Kochia (kochia (Kochia scoparia); 62 g ai/ha): 80; Plant response rating (0 to 100), Kochia (kochia (Kochia scoparia); 125 g ai/ha): 85; Plant response rating, Kochia (kochia (Kochia scoparia); 250 g ai/ha): 85; Plant response rating, Kochia (kochia (Kochia scoparia); 500 g ai/ha): 85; Plant response rating (0 to 100), Oat, Wild (wild oat (Avena fatua); 62 g ai/ha): 0; Plant response rating (0 to 100), Oat, Wild (wild oat (Avena fatua); 125 g ai/ha): 0; Plant response rating, Oat, Wild (wild oat (Avena fatua); 250 g ai/ha): 0; Plant response rating, Oat, Wild (wild oat (Avena fatua); 500 g ai/ha): 0
